Reference: the supplement of paper PMC10307832

Key:
Assay in all cases: relative viability (nuclei count vs DMSO), 5 days (fraction); higher = more cells survive
[1] = compound: Cc1ccc(C(=O)Nc2cccc(C(F)(F)F)c2)cc1Nc1cncc(C(N)=O)c1 [ALW-II-49-7] + CC(=O)c1c(C)c2cnc(Nc3ccc(N4CCNCC4)cn3)nc2n(C2CCCC2)c1=O [Palbociclib] (partner 0.5 µM)
In short: (§1)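 Lung cancer cell lines, seeded in 1536-well plates, were treated the following day by pin tool with a single drug or with five library-drug doses (not always all listed) in √10 steps on top of a fixed anchor-drug dose. Cells were fixed and nuclei stained in one step after 5 days, and nuclei were counted. Relative viability is the nuclei count for treated wells divided by that for vehicle wells, reported as medians of duplicate plates.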

ALW-II-49-7 + Bortezomib = compound: Cc1ccc(C(=O)Nc2cccc(C(F)(F)F)c2)cc1Nc1cncc(C(N)=O)c1 [ALW-II-49-7] + CC(C)C[C@H](NC(=O)[C@H](Cc1ccccc1)NC(=O)c1cnccn1)B(O)O [Bortezomib] (partner 0.002 µM)
In short: as §1

ALW-II-49-7 + Foretinib = compound: Cc1ccc(C(=O)Nc2cccc(C(F)(F)F)c2)cc1Nc1cncc(C(N)=O)c1 [ALW-II-49-7] + COc1cc2c(Oc3ccc(NC(=O)C4(C(=O)Nc5ccc(F)cc5)CC4)cc3F)ccnc2cc1OCCCN1CCOCC1 [Foretinib] (partner 0.25 µM)
In short: as §1

Dasatinib + Crizotinib = compound: Cc1nc(Nc2ncc(C(=O)Nc3c(C)cccc3Cl)s2)cc(N2CCN(CCO)CC2)n1 [Dasatinib] + C[C@@H](Oc1cc(-c2cnn(C3CCNCC3)c2)cnc1N)c1c(Cl)ccc(F)c1Cl [Crizotinib] (partner 1 µM)
In short: as §1

## UMC-11
[1]; first compound 0.08 µM
  relative viability: 0.345
[1]; first compound 0.253 µM
  relative viability: 0.348
[1]; first compound 0.8 µM
  relative viability: 0.33
[1]; first compound 2.53 µM
  relative viability: 0.295
[1]; first compound 8 µM
  relative viability: 0.274
ALW-II-49-7 + Bortezomib; first compound 0.08 µM
  relative viability: 0.514
ALW-II-49-7 + Bortezomib; first compound 0.253 µM
  relative viability: 0.786
ALW-II-49-7 + Bortezomib; first compound 2.53 µM
  relative viability: 0.792
ALW-II-49-7 + Bortezomib; first compound 8 µM
  relative viability: 0.521
ALW-II-49-7 + Foretinib; first compound 0.08 µM
  relative viability: 1.11
ALW-II-49-7 + Foretinib; first compound 0.253 µM
  relative viability: 1.06
ALW-II-49-7 + Foretinib; first compound 0.8 µM
  relative viability: 0.991
ALW-II-49-7 + Foretinib; first compound 2.53 µM
  relative viability: 1.07
ALW-II-49-7 + Foretinib; first compound 8 µM
  relative viability: 1.03
Dasatinib + Crizotinib; first compound 0.005 µM
  relative viability: 0.537
Dasatinib + Crizotinib; first compound 0.01581 µM
  relative viability: 0.389
Dasatinib + Crizotinib; first compound 0.05 µM
  relative viability: 0.359
Dasatinib + Crizotinib; first compound 0.1581 µM
  relative viability: 0.258
Dasatinib + Crizotinib; first compound 0.5 µM
  relative viability: 0.242
